No end group written: not given here.
What follows are substances tested against T1, human TNFα (Homo sapiens, UniProt P01375) (assay: p55 receptor/IgG fusion protein binding assay (inhibition of TNFα capture by p55-Ig coated plate)). Conditions: human recombinant TNFα 25 ng/ml preincubated with peptide; relative to TNFα in the absence of peptide; read-out: IC50 (concentration necessary to inhibit TNFα by 50%), inhibition of binding of TNFα to p55TNFr-IgG chimeric construct.
T1 construct: purchased Biosource, Camarillo, Calif
T1 sequence (P01375 77-233 limits assumed): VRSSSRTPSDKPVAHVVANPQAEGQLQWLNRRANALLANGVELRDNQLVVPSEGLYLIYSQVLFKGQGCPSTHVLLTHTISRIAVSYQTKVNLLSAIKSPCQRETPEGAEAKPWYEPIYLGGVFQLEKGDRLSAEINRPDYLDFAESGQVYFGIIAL
Description: In order to screen compounds for their ability to block TNFα binding to the TNF p55 receptor, an assay has been designed using TNFα and a p55/IgG fusion protein in place of monovalent, non-fusion p55 TNF receptor protein. This assay was designed to identify peptides which bind to human TNFα and thereby prevent the capture of the TNFα by a microtiter plate coated with p55-Ig fusion protein. A constant concentration of human TNFα is preincubated with the test peptide and then incubated on the p55-Ig coated microtiter wells. Bound TNFα is detected using a specific antisera and an alkaline phosphatase-conjugated probe. An active peptide will reduce the amount of human TNFα bound to the well relative to control wells in which TNFα but no peptide was added.
A 96-well, U-bottom polyvinylchloride microtiter plate was coated with 50 μl/well of p55-Ig fusion protein at 5 μg/ml in 0.01M sodium phosphate, 0.15M sodium chloride (PBS) by incubation overnight at 4° C. or 2 hours at 37° C. The fusion protein, which consists of a p55 TNF receptor protein portion and an IgG portion, can be produced as disclosed in U.S. application Ser. No. 08/010,406 filed Jan. 29, 1993 which is incorporated herein by reference. The plate was washed three times with 0.05% Tween-20 in PBS, then blocked, by adding 150 μl/well of assay buffer (10 mM N-2-hydroxyethylpiperazine-N'-[…] (HEPES) pH 7.2, containing 0.1% porcine gelatin, 0.1% Tween-80, and 0.01% sodium azide) and continuing incubation for 1 hour at 37° C. or at 4° C. for 1-7 days.
Lyophilized peptides to be tested were weighed in tared 12×75 mm polystyrene tubes and reconstituted to a concentration of 1.2 mM with assay buffer. Each suspension was sonicated in a water bath for 1-5 minutes and vortexed 15-30 seconds to disperse large particles. Serial dilutions of each peptide suspension were prepared using assay buffer in a 96-well polystyrene microtiter plate. Additional wells received Fab fragment of the mouse/human monoclonal anti-human TNFα antibody cA2 (positive control) or assay buffer (negative control). […] The polystyrene dilution plate was then sealed and incubated 1 hour at room temperature on an orbital mixer set at moderate speed.
Following the sample preincubation, blocker was discarded from the p55-Ig coated plate and blotted dry. Aliquots (50 μl) of each peptide or control were transferred into duplicate wells on the p55-Ig coated plate which was then sealed and incubated 1 hour at 37° C. Duplicate wells containing only assay buffer were included as a plate blank. After incubation the p55-Ig plate was washed three times with 0.05% Tween-20 in PBS.
To detect TNFα captured by the p55-Ig plate, all wells were incubated in succession with polyclonal rabbit anti-human TNFα (Genzyme, Boston, Mass.; 1:500 in assay buffer, 50 μl/well), biotinylated goat anti-rabbit Ig (H&L) (Vector Laboratories, Burlingame, Calif.; 1 μg/ml in assay buffer, 50 μl/well) and streptavidin-alkaline phosphatase conjugate (Pierce, Rockford, Ill.; 1 μg/ml in assay buffer, 50 μl/well). All incubations were for 1 hour at 37° C. and after each incubation the plate was washed three times with 0.05% Tween-20 in PBS. Fifty microliters of alkaline phosphatase substrate solution (alkaline buffer (Sigma, St. Louis, Mo.) diluted 1:500 in deionized water plus one 5 mg tablet of p-nitrophenyl phosphate (Sigma, St. Louis, Mo.) per 5 ml of diluted buffer) was added to all wells and incubation continued for 20 minutes at room temperature. Color development was stopped by adding to all wells 50 μl of 3N sodium hydroxide. The optical density (OD) at 405 nm was measured on a microtiter plate reader (Molecular Devices Vmax plate reader), with the plate blank wells subtracted as background. The activity of each peptide was then expressed as the percent inhibition of TNFα capture by the p55-Ig plate, relative to the amount of TNFα captured in wells containing only assay buffer (negative control), as follows: […]

Point of comparison: “Ac-YAESVKGRFTISRDDSKSAVYL-NH2 [SEQ ID NO:3, Acetyl-tyrosyl-alanyl-glutamyl-seryl-valyl-lysyl-glycyl-arginyl-phenylalanyl-threonyl-isoleucyl-seryl-arginyl-aspartyl-aspartyl-seryl-lysyl-seryl-alanyl-valyl-tyrosyl-leucine-amide]”, IC50 290 µM. Against it:
- Ac-DILLTQSPAILSVSPGERVSFS-NH2 [SEQ ID NO:6, Acetyl-aspartyl-isoleucyl-leucyl-leucyl-threonyl-glutaminyl-seryl-prolyl-alanyl-isoleucyl-leucyl-seryl-valyl-seryl-prolyl-glycyl-glutamyl-arginyl-valyl-seryl-phenylalanyl-serine-amide] — 8.7-fold higher, 2530 µM
- Ac-FSNHWMNW-NH2 [SEQ ID NO:9, Acetyl-phenylalanyl-seryl-asparaginyl-histidyl-tryptophyl-methionyl-asparaginyl-tryptophan-amide] — 4.8-fold lower, 60 µM
- Ac-FSNHWMNWVR-NH2 [SEQ ID NO:2, Acetyl-phenylalanyl-seryl-asparaginyl-histidyl-tryptophyl-methtonyl-asparaginyl-tryptophyl-valyl-arginine-amide] — within 1.5-fold, 410 µM
- Ac-INTVESEDIADYYCQQSHSW-NH2 [SEQ ID NO:8, Acetyl-isoleucyl-asparaginyl-threonyl-valyl-glutamyl-seryl-glutamyl-aspartyl-isoleucyl-alanyl-aspartyl-tyrosyl-tyrosyl-cysteinyl-glutaminyl-glutaminyl-seryl-histidyl-seryl-tryptophan-amide] — 3.8-fold higher, 1110 µM
- Ac-LIKYASQSMSGI-NH2 [SEQ ID NO:1, Acetyl-leucyl-tsoleucyl-lysyl-tyrosyl-alanyl-seryl-glutaminyl-seryl-methionyl-seryl-glycyl-isoleucine-amide] — 6.5-fold higher, 1880 µM
- Ac-TDLRTEDTGVYYCSRNYYGSTY-NH2 [SEQ ID NO:5, Acetyl-threonyl-aspartyl-leucyl-arginyl-threonyl-glutamyl-aspartyl-threonyl-glycyl-valyl-tyrosyltyrosyl-cysteinyl-seryl-arginyl-asparaginyl-tyrosyl-tyrosyl-glycyl-seryl-threonyl-tyrosine-amide] — 3.9-fold higher, 1130 µM
- Ac-YYSQQSHSWPFTF-NH2 [SEQ ID NO:7, Acetyl-tyrosyl-tyrosyl-seryl-glutaminyl-glutaminyl-seryl-histidyl-seryl-tryptophyl-prolyl-phenylalanyl-threonyl-phenylalanine-amide] — 3.7-fold higher, 1080 µM
- RQSPEKGLEWVAEIRSKSI-NH2 [SEQ ID NO:4, Arginyl-glutaminyl-seryl-prolyl-glutamyl-lysyl-glycyl-leucyl-glutamyl-tryptophyl-valyl-alanyl-glutamyl-isoleucyl-arginyl-seryl-lysyl-seryl-isoleucine- amide] — 3.5-fold higher, 1020 µM

Source: patent US5519000A, “Tumor necrosis factor inhibitors” (Centecor, Inc., priority 1994, dated 1996)
